CN=C(NC#N)NCCSCc1nc[nH]c1C
solubility (mole fraction)
Details	281.04 K	285.25 K	289.65 K	292.46 K	296.7 K	297.26 K	306.76 K	309.1 K	311.34 K
in ethanol	–	–	–	–	–	0.005	0.0081	0.0091	0.0101
in methanol	0.0082	0.0098	0.0119	0.0138	0.0166	–	–	–	–

CC(=O)Oc1ccccc1C(=O)O
Details	solubility (mole fraction)
in ethanol, 274.95 K	0.0246
in ethanol, 292.45 K	0.0487
in isopropanol, 274.9 K	0.0163
in isopropanol, 281.7 K	0.0223
in isopropanol, 283.75 K	0.0245
in n-octanol, 272.14 K	0.01
in n-octanol, 281.45 K	0.0152
in n-octanol, 291.53 K	0.0235
in n-octanol, 307.12 K	0.0434

CC(=O)Nc1ccc(O)cc1
Details	solubility (mole fraction)
in ethanol, 284.49 K	0.0444
in ethanol, 288.38 K	0.0471
in ethanol, 293.54 K	0.0508
in ethanol, 295.69 K	0.0539
in isopropanol, 273.5 K	0.0256
in isopropanol, 289.99 K	0.0372
in isopropanol, 302.5 K	0.0473
in n-octanol, 262.78 K	0.0057
in n-octanol, 275.42 K	0.0082
in n-octanol, 285.72 K	0.0104
in n-octanol, 301.15 K	0.0151

Reference: BigSolDB 2.1
